Reference: patent US8680100B2, “Sulfonylhydrazide compounds for treating proliferative disorders” (Synta Pharmaceuticals Corp., priority 2008, dated 2014)
pEC50: −log10 of the molar value.

The compounds below were run on HSP70 (assay: Hsp70 Activity Essay (HSP70 ELISA on lysates of MDA435 cells)). Details: concentration that increases HSP70 to 50% of maximum increase by N′1,N′3-dimethyl-N′1,N′3-di(phenylcarbonothioyl)malonohydrazide.
Type: cell-based
Protocol: Each well was plated with MDA435 cells using DMEM 10% FBS Phenol-red free medium 2.5 k/well and incubated in a 37° C./5% CO2 incubator for a minimum of 6 hours to obtain good cell adherence.
Dilutions of each test compound were prepared in DMSO and DMEM 10% FBS Phenol-red free medium. The final concentration in each well was 1250 nM, 125 nM, 12.5 nM or 1.25 nM of test compound and 0.25% DMSO. 0.25% DMSO was used as a negative control. Lysis buffer (any lysis buffer suitable for use in the Assay Designs kit, e.g., such as that described in the kit instructions) was then added (amount used is one quarter of the volume already present in each plate) and the mixtures were then shaken for 10 minutes.
150 μL of “Can Get Signal” Immunoreaction Enhancer Solution (Solution 1 for primary antibody, TOYOBO, Catalogue No. NKB-101) were added to each of a series of ELISA plates. The ELISA plates were obtained from the HSP70 ELISA Kit (catalogue number EKS-700B) purchased from Assay Designs (Ann Arbor, Mich.). After the cells were lysed, 50 μL of lysate were taken from each well and added to an ELISA plate, resulting in a 4 fold dilution of the lysate (50 μL of lysate and 150 μL of Can Get Signal solution). The plates were covered with adhesive tape and incubated overnight at 4° C.;
In the morning, the liquid was aspirated from all wells and 400 μL of Washing Buffer made from 20× concentrate provided in the ELISA Kit and distilled water were added and then removed by aspiration. The addition of Washing Buffer and aspiration was repeated four times. After the fourth wash, the plate were inverted to a paper towel and carefully patted dry. 100 μL of HSP70 antibody provided in ELISA Kit were added to each well. Each well was covered with adhesive tape and incubated for one hour at room temperature. Washing Buffer was then added followed by removal with aspiration. The addition of Washing Buffer and aspiration was repeated four times, after which the plates were inverted and patted dry. 100 μL of HSP70 conjugate (provided in the ELISA Kit) were added to the wells. Each well was then covered with adhesive tape and incubated for one hour at room temperature. Washing Buffer was then added followed by removal with aspiration. The addition of Washing Buffer and aspiration was repeated four times, after which the plates were inverted and patted dry.
100 μL of the TMB Substrate (obtained from the ELISA Kit) were added to the wells (color development was visible in 1 minute). The wells were incubated until saturated color development (usually 5-15 minutes). Stop Solution 2 (provided in the ELISA Kit) was added in the same order TMB Substrate was added. The OD450 was then obtained using a plate reader. The EC50 for the compounds was calculated using N′^1,N′^3-dimethyl-N′^1,N′^3-di(phenylcarbonothioyl)malonohydrazide on the same plate as a control (concentration that increases HSP70 to 50% of maximum increase by N′^1,N′^3-dimethyl-N′^1,N′^3-di(phenylcarbonothioyl)malonohydrazide). The EC50 for each of the compounds tested is shown in example 1.

Row | Compound | pEC50
1 | CN(NC(=O)CS(=O)(=O)NN(C)C(=S)c1cccc(F)c1)C(=S)c1cccc(F)c1 [Compound 1, N′-(3-fluorophenylcarbonothioyl)-2-(2-(3-fluorophenylcarbonothioyl)-2-methylhydrazinyl)-N′-methyl-2-oxoethanesulfonohydrazide] | 7.22
2 | CCN(NS(=O)(=O)CC(=O)NN(C)C(=S)c1ccccc1)C(=S)c1ccccn1 [Compound 6, N′-ethyl-2-(2-methyl-2-(phenylcarbonothioyl)hydrazinyl)-2-oxo-N′-(pyridine-2-carbonothioyl) ethanesulfonohydrazide] | 7.60
3 | CCN(CC)C(=S)N(C)NC(=O)CS(=O)(=O)NN(C)C(=S)N(CC)CC [Compound 20, 2-(2-(2-(diethylcarbamothioyl)-2-methylhydrazinyl)-2-oxoethylsulfonyl)-N,N′-diethyl-1-methylhydrazinecarbothioamide] | 7.07
4 | CN(NC(=O)CS(=O)(=O)NN(C)C(=S)C1CC1)C(=S)C1CC1 [Compound 28, N′-(cyclopropanecarbonothioyl)-2-(2-(cyclopropanecarbonothioyl)-2-methylhydrazinyl)-N′-methyl-2-oxoethanesulfonohydrazide] | 7.01
5 | CCN(NC(=O)CS(=O)(=O)NN(CC)C(=S)C1CC1)C(=S)C1CC1 [Compound 29, N′-(cyclopropanecarbonothioyl)-2-(2-(cyclopropanecarbonothioyl)-2-ethylhydrazinyl)-N′-ethyl-2-oxoethanesulfonohydrazide] | 6.84
6 | CCN(NC(=O)CS(=O)(=O)NN(CC)C(=S)C1(C)CC1)C(=S)C1(C)CC1 [Compound 30, N′-ethyl-2-(2-ethyl-2-(1-methylcyclopropanecarbonothioyl) hydrazinyl)-N′-(1-methylcyclopropanecarbonothioyl)-2-oxoethanesulfonohydrazide] | 7.31
7 | CCN(CC)C(=S)N(C)NS(=O)(=O)CC(=O)NN(C)C(=S)C1CC1 [Compound 31, 2-(2-(2-(cyclopropanecarbonothioyl)-2-methylhydrazinyl)-2-oxoethylsulfonyl)-N,N′-diethyl-1-methylhydrazinecarbothioamide] | 6.76
8 | CN(NC(=O)CS(=O)(=O)NN(C)C(=S)C1CCC1)C(=S)C1CCC1 [Compound 32, N′-(cyclobutanecarbonothioyl)-2-(2-(cyclobutanecarbonothioyl)-2-methylhydrazinyl)-N′-methyl-2-oxoethanesulfonohydrazide] | 6.02
9 | CCOC(=S)N(C)NS(=O)(=O)CC(=O)NN(C)C(=S)C1CC1 [Compound 33, O-ethyl 2-(2-(2-(cyclopropanecarbonothioyl)-2-methylhydrazinyl)-2-oxoethylsulfonyl)-1-methylhydrazinecarbothioate] | 6.84
10 | CCN(NS(=O)(=O)CC(=O)NN(C)C(=S)C1CC1)C(=S)c1cnccn1 [Compound 35, 2-(2-(cyclopropanecarbonothioyl)-2-methylhydrazinyl)-N′-ethyl-2-oxo-N′-(pyrazine-2-carbonothioyl)-ethanesulfonohydrazide] | 5.99
11 | CN(NS(=O)(=O)CC(=O)NN(C)C(=S)C1CCC1)C(=S)c1ccccc1 [Compound 40, 2-(2-(cyclobutanecarbonothioyl)-2-methylhydrazinyl)-N′-methyl-2-oxo-N′-(phenylcarbonothioyl)ethane-sulfonohydrazide] | 5.95
12 | CN(NC(=O)CS(=O)(=O)NN(C)C(=S)c1ccc(N2CCOCC2)cc1)C(=S)c1ccccc1 [Compound 43, N′-methyl-2-(2-methyl-2-(phenylcarbonothioyl)hydrazinyl)-N′-(4-morpholinophenylcarbonothioyl)-2-oxoethanesulfonohydrazide] | 7.13
13 | CCN(NS(=O)(=O)CC(=O)NN(C)C(=S)c1ccccc1)C(=S)N1CCOCC1 [Compound 50, N′-ethyl-2-(2-methyl-2-(phenylcarbonothioyl)hydrazinyl)-N′-(morpholine-4-carbonothioyl)-2-oxoethanesulfonohydrazide] | 6.94
14 | CN(NC(=O)CS(=O)(=O)NN(C)C(=S)N1CCCC1)C(=S)c1ccccc1 [Compound 51, N′-methyl-2-(2-methyl-2-(phenylcarbonothioyl)hydrazinyl)-2-oxo-N′-(pyrrolidine-1-carbonothioyl)-ethanesulfonohydrazide] | 7.24
15 | CN(NC(=O)CS(=O)(=O)NN(C)C(=S)N1CCCCC1)C(=S)c1ccccc1 [Compound 52, N′-methyl-2-(2-methyl-2-(phenylcarbonothioyl)hydrazinyl)-2-oxo-N′-(piperidine-1-carbonothioyl)-ethanesulfonohydrazide] | 7.06
16 | CN(NS(=O)(=O)CC(=O)NN(C)C(=S)N1CCCC1)C(=S)c1ccccc1 [Compound 53, N′-methyl-2-(2-methyl-2-(pyrrolidine-1-carbonothioyl)hydrazinyl)-2-oxo-N′-(phenylcarbonothioyl)ethane-sulfonohydrazide] | 6.99
17 | CN(NS(=O)(=O)CC(=O)NN(C)C(=S)N1CCCCC1)C(=S)c1ccccc1 [Compound 54, N′-methyl-2-(2-methyl-2-(piperidine-1-carbonothioyl)hydrazinyl)-2-oxo-N′-(phenylcarbonothioyl)ethane-sulfonohydrazide] | 6.97

Now from value to compound:

Row | pEC50 | Compound
18 | 6.01 | CN(NC(=O)CS(=O)(=O)NN(C)C(=S)c1cnccn1)C(=S)c1ccccc1 [Compound 9, N′-methyl-2-(2-methyl-2-(phenylcarbonothioyl)hydrazinyl)-2-oxo-N′-(pyrazine-2-carbonothioyl)-ethanesulfonohydrazide]
19 | 6.74 | CN(NC(=O)CS(=O)(=O)NN(C)C(=S)c1cccnc1)C(=S)c1ccccc1 [Compound 10, N′-methyl-2-(2-methyl-2-(phenylcarbonothioyl)hydrazinyl)-2-oxo-N′-(pyridine-3-carbonothioyl)-ethanesulfonohydrazide]
20 | 5.99 | CN(NC(=O)CS(=O)(=O)NN(C)C(=S)c1ccccc1)C(=S)c1ccncc1 [Compound 11, N′-methyl-2-(2-methyl-2-(pyridine-4-carbonothioyl)hydrazinyl)-2-oxo-N′-(phenylcarbonothioyl)ethane-sulfonohydrazide]
21 | 6.69 | CN(NC(=O)CS(=O)(=O)NN(C)C(=S)c1ccccc1)C(=S)c1cccnc1 [Compound 13, N′-methyl-2-(2-methyl-2-(pyridine-3-carbonothioyl)hydrazinyl)-2-oxo-N′-(phenylcarbonothioyl)ethane-sulfonohydrazide]
22 | 6.90 | CN(NC(=O)CS(=O)(=O)NN(C)C(=S)c1ccoc1)C(=S)c1ccoc1 [Compound 17, N′-(furan-3-carbonothioyl)-2-(2-(furan-3-carbonothioyl)-2-methylhydrazinyl)-N′-methyl-2-oxoethanesulfonohydrazide]
23 | 7.82 | CN(NC(=O)CS(=O)(=O)NN(C)C(=S)c1ccco1)C(=S)c1ccco1 [Compound 18, N′-(furan-2-carbonothioyl)-2-(2-(furan-2-carbonothioyl)-2-methylhydrazinyl)-N′-methyl-2-oxoethanesulfonohydrazide]
24 | 7.12 | CN(NS(=O)(=O)CC(=O)NN(C)C(=S)C1CC1)C(=S)c1ccccc1 [Compound 36, 2-(2-(cyclopropanecarbonothioyl)-2-methylhydrazinyl)-N′-methyl-2-oxo-N′-(phenylcarbonothioyl)ethane-sulfonohydrazide]
25 | 7.66 | CN(NC(=O)CS(=O)(=O)NN(C)C(=S)C1CC1)C(=S)c1ccccc1 [Compound 39, N′-(cyclopropanecarbonothioyl)-N′-methyl-2-(2-methyl-2-(phenylcarbonothioyl)hydrazinyl)-2-oxoethanesulfonohydrazide]
26 | 7.25 | CN(NC(=O)CS(=O)(=O)NN(C)C(=S)c1ccc2c(c1)OCO2)C(=S)c1ccccc1 [Compound 42, N′-(benzo[d][1,3]dioxole-5-carbonothioyl)-N′-methyl-2-(2-methyl-2-(phenylcarbonothioyl)hydrazinyl)-2-oxoethanesulfonohydrazide]
27 | 6.64 | CSC(=S)N(C)NS(=O)(=O)CC(=O)NN(C)C(=S)c1ccccc1 [Compound 44, methyl 1-methyl-2-(2-(2-methyl-2-(phenylcarbonothioyl)hydrazinyl)-2-oxoethylsulfonyl) hydrazinecarbodithioate]
